The source of these data is article PMC10773943, “Molecular cloning and functional analysis of 4-coumarate: CoA ligases from Marchantia paleacea and their roles in lignin and flavanone biosynthesis” (PLOS ONE, 2024).

What all share (type): biochemical, Marchantia paleacea
Settings in all cases: ATP, MgCl2, 200 mM Tris-HCl (assay: 5 mM ATP, 300 μM CoA, 5 mM MgCl2, pH 7.5, 30°C)

Test [1] concerns T1, Mp4CL1.
T1 construct: expressed in E. coli BL21(DE3), purified; from transcriptome SRP078650
Put plainly: UV absorbance of CoA ester formation at […] nm.

The test system of test [2] is T1, Mp4CL1. Put plainly: UV absorbance of CoA ester formation at […] nm. The source holds these as a separate data set.
In test [3] the test system is T1, Mp4CL1. Put plainly: HPLC quantification of CoA ester with calibration curve. The text has this: HPLC quantification of CoA ester with calibration curve on Mp4CL1
Test [4] has as its system T1, Mp4CL1. As to the kind of experiment: UV absorbance of CoA ester formation at […] nm. The source holds these as a separate data set.

Molecules are shown by their SMILES.

In the case of `O=C(O)/C=C/c1ccc(O)c(O)c1` [caffeic acid], in test [1], the Km was determined as 113 ± 24.3 µM. `O=C(O)/C=C/c1ccccc1` [cinnamic acid]: the Km in test [2] came to 115 ± 16.6 µM. `O=C(O)CCc1ccc(O)cc1` [dihydro-p-coumaric acid]: in test [3], the Michaelis-Menten constant (Km) was 289 ± 36.5 µM.

In the case of `COc1cc(/C=C/C(=O)O)ccc1O` [ferulic acid], in test [1], the Km was determined as 414 ± 95.7 µM. `O=C(O)/C=C/c1ccc(O)cc1` [p-coumaric acid]: the Km in test [4] amounted to 94 ± 30.9 µM.
